Test results published in patent publication US7176199B2, “Aryl-substituted alicyclic compound and medical composition comprising the same” (Dainippon Pharmaceutical Co., Ltd., priority 2001, dated 2007).

Legend:
αvβ3 integrin = αvβ3 integrin (Homo sapiens, UniProt P05106+P06756); test: Assay for the inhibition of αvβ3 integrin binding (vitronectin as ligand); parameters: purchased Chemicon International, Inc., USA; conditions: inhibition of specific binding of biotinylated human vitronectin to immobilized αvβ3 integrin
Method: Experiment 1: Assay for the Inhibition of αvβ3 integrin binding
This experiment was carried out based on the method described in […].
Purified human αvβ3 integrin (Chemicon International, Inc., USA) was adjusted to a concentration of 1 μg/ml with TBS^++ [20 mM Tris-HCl (pH 7.4), 150 mM NaCl, 1 mM CaCl2, 1 mM MgCl2], and the diluted solution was added to plates (Labsystems, Finland) at 50 μl/well. The plate was left at 4° C. overnight for immobilization of the αvβ3 integrin. All subsequent steps were done at 25° C., and the procedure for each well was described hereafter.
The solution was discarded, and then 200 μl of TBS^++ containing 1% BSA (Wako Pure Chemical Industries, Ltd., Japan) was added to the well and left for one hour for blocking. The well was washed with a wash solution (TBS^++ containing 0.01% Tween 20) 4 times, and 50 μl of a reaction solution (TBS^++ containing 0.1% BSA and 0.01% Tween 20) was added to the well. Subsequently, 25 μl of a test compound solution adjusted to each concentration with the reaction solution was added, and then mixed with 25 μl of biotinylated (Amersham Pharmacia Biotech, UK) human vitronectin (Gibco BRL, USA) adjusted to 0.4 μg/ml with the reaction solution. The mixture was reacted for 2 hours. After washing 4 times with the wash solution, 100 μl of peroxidase-labeled streptoavidin (Amersham Pharmacia Biotech, UK) diluted 1:500 with the reaction solution was added to the well. Following 30 minutes reaction, the well was washed 4 times with the wash solution, and 100 μl of a TMB substrate solution (Bio-Rad Laboratories, USA) was added to the well. Color was developed for 20 minutes and the reaction was stopped by adding 100 μl of 0.5 M sulfuric acid.
(§1) The absorbance at 450 nm was measured with a plate reader (Molecular Devices, USA) to obtain a total binding. To obtain a nonspecific binding, EDTA adjusted to 20 mM with the reaction solution was added instead of the test compound solution. A specific binding was calculated by subtracting the nonspecific binding from the total binding.

αIIbβ3 integrin = target: T1, αIIbβ3 integrin (Homo sapiens, UniProt P05106+P08514); test: Assay for the inhibition of αIIbβ3 integrin binding (fibrinogen as ligand, integrin captured from platelet lysate); conditions: inhibition of specific binding of biotinylated fibrinogen to αIIbβ3 integrin from human platelet lysate
T1 construct: from tissue; host or cells: human platelets (Triton X-100 lysate)
Method: Experiment 2: Assay for the Inhibition of αIIbβ3 Integrin Binding
This experiment was carried out based on the method described in Thromb. Haemostasis, 75, 339 (1996), Blood, 93, 2559 (1999), using fibrinogen as a ligand. According to the method described in the above literatures, assay for the inhibition of αIIbβ3 integrin binding can be achieved by capturing αIIbβ3 integrin from platelet lysate with the use of an activated antibody against αIIbβ3 integrin.
Human platelets were isolated in a conventional manner. At 25° C., the isolated platelets were adjusted to a concentration of 1.25×10^9/ml with TBS+[50 mM Tris-HCl (pH 7.4), 150 mM NaCl, 2 mM CaCl2], and then ⅛ volume of TBS^+ containing 2 mM leupepsin and 10 mM PMSF was added and stirred gently. Nest, 1/9 volume of TBS+ containing 10% Triton X-100 was added and stirred gently. After standing on ice for 30 minutes, a platelet lysate was prepared from the mixture by discarding the insoluble fraction with centrifugation (10,000 g, 15 minutes).
Anti-mouse IgG goat antibody (Jackson Immunoresearch Laboratories, Inc., USA) was adjusted to a concentration of 5 μg/ml with sodium carbonate buffer (pH 9.6) and added to plates at 50 μl/well. The plate was left at 4° C. overnight for immobilization of the antibody. All subsequent steps were done at 25° C., and the procedure for each well was described hereafter.
The well was washed once with TBS^+, and then 200 μl of TBS^+ containing 5% BSA was added to the well and left for one hour for blocking. The well was washed with a reaction solution (TBS^+ containing 0.1% BSA and 0.05% Triton X-100) 4 times, and then 50 μl of anti-human αIIbβ3 integrin activated monoclonal antibody (TAKARA SHUZO CO., LTD, Japan, PT25-2 strain) adjusted to 5 μg/ml with the reaction solution was added to the well. After one hour reaction, the well was washed 4 times with the reaction solution, and 50 μl of the platelet lysate diluted 1:2 with the reaction solution was added to the well. Following 2 hours reaction, the well was washed 4 times with the reaction solution, and 50 μl of the reaction solution was added to the well. Subsequently, 25 μl of a test compound solution adjusted to each concentration with the reaction solution was added, and then mixed with 25 μl of biotinylated fibrinogen (Calbiochem, Germany) adjusted to 2 μg/ml with the reaction solution. The mixture was reacted for one hour. After washing 4 times with the reaction solution, 100 μl of alkaline phosphatase-labeled streptoavidin (Gibco BRL, USA) diluted 1:500 with the reaction solution was added to the well. Following 30 minutes reaction, the well was washed 4 times with the wash solution. Next, 50 μl of the NaDPH solution (Invitrogen, former company name: Gibco BRL, USA) was added and reacted for 20 minutes, and then 50 μl of an amplification solution containing diaphorase and alcohol dehydrogenase (Invitrogen, former company name: Gibco BRL, USA) was added. Color was developed for 20 minutes and the reaction was stopped by adding 50 μl of 0.5 M sulfuric acid.
as §1, with “495” for “450”, “reader” for “reader (Molecular Devices, USA)”

Sequence of αvβ3 integrin (P06756 31-889 limits assumed): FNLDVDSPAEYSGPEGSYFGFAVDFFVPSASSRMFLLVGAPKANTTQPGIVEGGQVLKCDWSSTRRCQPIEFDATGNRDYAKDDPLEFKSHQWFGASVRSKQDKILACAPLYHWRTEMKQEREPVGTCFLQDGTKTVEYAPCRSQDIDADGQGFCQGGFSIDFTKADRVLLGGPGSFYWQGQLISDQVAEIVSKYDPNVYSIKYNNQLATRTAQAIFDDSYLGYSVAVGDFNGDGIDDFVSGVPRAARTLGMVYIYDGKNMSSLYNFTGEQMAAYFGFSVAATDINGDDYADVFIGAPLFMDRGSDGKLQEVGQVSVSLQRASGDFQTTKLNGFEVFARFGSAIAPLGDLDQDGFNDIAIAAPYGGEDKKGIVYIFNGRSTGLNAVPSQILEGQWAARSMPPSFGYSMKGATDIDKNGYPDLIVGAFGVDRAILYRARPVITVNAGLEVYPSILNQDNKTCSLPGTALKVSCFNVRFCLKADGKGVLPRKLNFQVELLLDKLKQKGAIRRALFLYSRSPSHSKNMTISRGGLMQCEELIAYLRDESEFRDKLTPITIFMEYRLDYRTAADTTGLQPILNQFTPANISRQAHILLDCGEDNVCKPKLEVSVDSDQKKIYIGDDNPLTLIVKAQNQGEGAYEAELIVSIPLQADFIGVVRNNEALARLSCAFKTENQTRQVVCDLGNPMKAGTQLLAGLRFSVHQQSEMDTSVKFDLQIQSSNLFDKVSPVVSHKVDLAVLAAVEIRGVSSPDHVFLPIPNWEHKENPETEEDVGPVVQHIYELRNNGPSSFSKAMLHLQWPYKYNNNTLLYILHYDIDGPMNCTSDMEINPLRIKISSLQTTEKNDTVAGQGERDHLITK
Sequence of αvβ3 integrin (P06756 891-1048 partner limits assumed): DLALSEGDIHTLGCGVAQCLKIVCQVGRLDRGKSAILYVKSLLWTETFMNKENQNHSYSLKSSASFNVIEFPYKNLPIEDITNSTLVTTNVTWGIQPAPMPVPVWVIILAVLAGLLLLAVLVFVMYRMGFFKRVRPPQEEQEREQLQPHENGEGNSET
Sequence of αvβ3 integrin (P05106 27-788): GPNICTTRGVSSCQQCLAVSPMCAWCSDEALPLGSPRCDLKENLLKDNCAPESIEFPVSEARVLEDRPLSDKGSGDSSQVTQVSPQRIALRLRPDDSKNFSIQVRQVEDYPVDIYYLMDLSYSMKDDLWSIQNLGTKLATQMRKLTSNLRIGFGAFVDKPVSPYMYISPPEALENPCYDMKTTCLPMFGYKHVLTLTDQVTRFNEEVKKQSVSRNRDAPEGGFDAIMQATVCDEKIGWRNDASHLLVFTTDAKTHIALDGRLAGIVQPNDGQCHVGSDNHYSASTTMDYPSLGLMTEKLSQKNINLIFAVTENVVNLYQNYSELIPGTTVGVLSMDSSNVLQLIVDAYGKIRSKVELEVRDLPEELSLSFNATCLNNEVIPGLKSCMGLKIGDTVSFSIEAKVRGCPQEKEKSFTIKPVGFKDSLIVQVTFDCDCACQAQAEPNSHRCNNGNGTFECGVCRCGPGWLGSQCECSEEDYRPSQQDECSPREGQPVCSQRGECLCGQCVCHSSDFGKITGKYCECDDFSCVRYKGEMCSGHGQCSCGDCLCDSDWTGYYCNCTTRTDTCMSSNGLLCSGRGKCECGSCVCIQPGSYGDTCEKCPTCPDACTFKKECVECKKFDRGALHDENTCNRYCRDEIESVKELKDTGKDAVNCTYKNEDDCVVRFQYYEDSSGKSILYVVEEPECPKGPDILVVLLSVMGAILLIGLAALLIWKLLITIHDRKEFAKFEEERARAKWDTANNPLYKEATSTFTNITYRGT
T1 sequence (P08514 32-887 limits assumed): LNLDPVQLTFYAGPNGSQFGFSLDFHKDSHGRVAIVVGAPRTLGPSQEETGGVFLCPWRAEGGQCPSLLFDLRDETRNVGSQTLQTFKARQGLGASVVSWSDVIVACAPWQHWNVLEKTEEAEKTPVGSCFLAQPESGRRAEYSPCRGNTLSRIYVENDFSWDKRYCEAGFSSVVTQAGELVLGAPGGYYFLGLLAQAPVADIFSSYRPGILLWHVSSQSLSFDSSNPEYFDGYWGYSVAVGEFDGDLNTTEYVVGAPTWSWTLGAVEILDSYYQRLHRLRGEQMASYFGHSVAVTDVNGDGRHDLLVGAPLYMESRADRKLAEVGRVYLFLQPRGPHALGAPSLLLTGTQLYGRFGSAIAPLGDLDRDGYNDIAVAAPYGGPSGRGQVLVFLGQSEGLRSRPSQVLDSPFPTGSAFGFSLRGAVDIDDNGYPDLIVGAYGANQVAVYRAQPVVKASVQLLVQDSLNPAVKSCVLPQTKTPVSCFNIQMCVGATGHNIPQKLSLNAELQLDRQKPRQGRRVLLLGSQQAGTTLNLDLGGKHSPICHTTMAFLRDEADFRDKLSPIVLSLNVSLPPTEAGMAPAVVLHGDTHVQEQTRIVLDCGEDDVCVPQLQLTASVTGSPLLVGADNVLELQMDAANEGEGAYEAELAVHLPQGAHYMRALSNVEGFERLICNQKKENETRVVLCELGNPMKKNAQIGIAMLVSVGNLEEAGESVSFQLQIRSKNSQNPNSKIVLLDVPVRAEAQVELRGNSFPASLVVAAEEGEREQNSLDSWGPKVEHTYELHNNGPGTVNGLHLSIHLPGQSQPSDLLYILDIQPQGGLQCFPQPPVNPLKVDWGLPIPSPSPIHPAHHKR
T1 sequence (P08514 891-1039 partner limits assumed): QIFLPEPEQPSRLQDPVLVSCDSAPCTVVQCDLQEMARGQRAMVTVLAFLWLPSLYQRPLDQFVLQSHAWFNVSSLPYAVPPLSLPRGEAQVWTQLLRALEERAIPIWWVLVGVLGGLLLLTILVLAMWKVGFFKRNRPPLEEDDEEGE
T1 sequence (P05106 27-788): as the sequence (P05106 27-788) above

Structure (SMILES) | IC50 (αvβ3 integrin) [nM] | IC50 (αIIbβ3 integrin) [nM]
CC(C)COC(=O)N[C@@H](CNC(=O)C1CCN(c2cccc(NC3=NCC(C)(C)CN3)c2)CC1)C(=O)O [Ex. 18, (2S)-2-isobutoxycarbonylamino-3-[[1-[3-(5,5-dimethyl-1,4,5,6-tetrahydropyrimidin-2-yl)aminophenyl]piperidin-4-yl]carbonylamino]-propanoic acid] | 0.13 | 310
CC(C)COC(=O)N[C@@H](CNC(=O)C1CCN(c2cccc(NC3=NCC(F)CN3)c2)CC1)C(=O)O (stereo partly drawn) [Ex. 19, (2S)-2-isobutoxycarbonylamino-3-[[1-[3-(5-fluoro-1,4,5,6-tetrahydropyrimidin-2-yl)aminophenyl]piperidin-4-yl]carbonylamino]-propanoic acid] | 0.032 | 100
CC(C)COC(=O)N[C@@H](CNC(=O)C1CCN(c2cccc(NC3=NCC(O)CN3)c2)CC1)C(=O)O (stereo partly drawn) [Ex. 20, (2S)-2-Isobutoxycarbonylamino-3-[[1-[3-(5-hydroxy-1,4,5,6-tetrahydropyrimidin-2-yl)aminophenyl]piperidin-4-yl]carbonylamino]-propanoic acid] | 0.061 | 37
CC(C)COC(=O)N[C@@H](CCC(=O)N1CCN(c2cccc(NC3=NCC(C)(C)CN3)c2)CC1)C(=O)O [Ex. 126] | 0.38 | –
CC(C)COC(=O)N[C@@H](CCC(=O)N1CCN(c2cccc(NC3=NCC(F)CN3)c2)CC1)C(=O)O (stereo partly drawn) [Ex. 127, (2S)-2-Isobutoxycarbonylamino-5-[4-[3-(5-fluoro-1,4,5,6-tetrahydropyrimidin-2-yl)aminophenyl]piperazin-1-yl]-5-oxopentanoic acid] | 0.055 | –
CC(C)COC(=O)N[C@@H](CCC(=O)N1CCN(c2cccc(NC3=NCC(O)CN3)c2)CC1)C(=O)O (some centres unmarked) [Ex. 128] | 0.3 | –
CCOC(=O)N[C@@H](CCC(=O)N1CCN(c2cccc(NC3=NCCCN3)c2)CC1)C(=O)O [Ex. 136] | 0.59 | –
CC(C)COC(=O)N[C@@H](CCC(=O)N1CCN(c2cccc(NC3=NCCCN3)c2)CC1)C(=O)O [Ex. 138, (2S)-2-isobutoxycarbonylamino-5-[4-[3-(1,4,5,6-tetrahydropyrimidin-2-yl)aminophenyl]piperazin-1-yl]-5-oxopentanoic acid] | 0.32 | –
O=C(Cc1ccccc1)N[C@@H](CCC(=O)N1CCN(c2cccc(NC3=NCCCN3)c2)CC1)C(=O)O [Ex. 139] | 6.8 | –
CCNC(=O)N[C@@H](CCC(=O)N1CCN(c2cccc(NC3=NCCCN3)c2)CC1)C(=O)O [Ex. 142] | 3.6 | –
O=C(NCc1ccccc1)N[C@@H](CCC(=O)N1CCN(c2cccc(NC3=NCCCN3)c2)CC1)C(=O)O [Ex. 143] | 1.4 | –
O=C(N[C@@H](CCC(=O)N1CCN(c2cc(NC3=NCCCN3)ccc2F)CC1)C(=O)O)OCc1ccccc1 [Ex. 155, (2S)-2-benzyloxycarbonylamino-5-[4-[2-fluoro-5-(1,4,5,6-tetrahydropyrimidin-2-yl)aminophenyl]piperazin-1-yl]-5-oxopentanoic acid] | 0.077 | –

Second part, the compound after the results:

IC50 (αvβ3 integrin) [nM] | IC50 (αIIbβ3 integrin) [nM] | Structure (SMILES)
0.074 | 37 | O=C(N[C@@H](CNC(=O)C1CCC(c2cccc(NC3=NCCCN3)c2)CC1)C(=O)O)OCc1ccccc1 (single isomer, unassigned) [Ex. 151A]
1.9 | 510 | O=C(N[C@@H](CNC(=O)C1CCC(c2cccc(NC3=NCCCN3)c2)CC1)C(=O)O)OCc1ccccc1 (single isomer, unassigned) [Ex. 151B]
0.06 | 43 | O=C(N[C@@H](CNC(=O)C1CCN(c2cccc(NC3=NCCCN3)c2)CC1)C(=O)O)OCc1ccccc1 [Ex. 2, (2S)-2-benzyloxycarbonylamino-3-[[1-[3-(1,4,5,6-tetrahydropyrimidin-2-yl)aminophenyl]piperidin-4-yl]carbonylamino]propanoic acid]
0.059 | 54 | O=C(N[C@@H](CNC(=O)C1CCN(c2cccc(NC3=NCCN3)c2)CC1)C(=O)O)OCc1ccccc1 [Ex. 9, (2S)-2-benzyloxycarbonylamino-3-[[1-[3-(2-imidazolin-2-yl)aminophenyl]piperidin-4-yl]carbonylamino]propanoic acid]
0.075 | 74 | O=C(N[C@@H](CNC(=O)C1CCN(c2cccc(NC3=NCCCCN3)c2)CC1)C(=O)O)OCc1ccccc1 [Ex. 10, (2S)-2-benzyloxycarbonylamino-3-[[1-[3-(1H-4,5,6,7-tetrahydro-1,3-diazepin-2-yl)aminophenyl]piperidin-4-yl]carbonylamino]propanoic acid]
0.14 | 87 | CC1(C)CN=C(Nc2cccc(N3CCC(C(=O)NC[C@H](NC(=O)OCc4ccccc4)C(=O)O)CC3)c2)NC1 [Ex. 11, (2S)-2-benzyloxycarbonylamino-3-[[1-[3-(5,5-dimethyl-1,4,5,6-tetrahydropyrimidin-2-yl)aminophenyl]piperidin-4-yl]carbonylamino]-propanoic acid]
0.057 | 95 | O=C(N[C@@H](CNC(=O)C1CCN(c2cccc(NC3=NCC(F)(F)CN3)c2)CC1)C(=O)O)OCc1ccccc1 [Ex. 12, (2S)-2-benzyloxycarbonylamino-3-[[1-[3-(5,5-difluoro-1,4,5,6-tetrahydropyrimidin-2-yl)aminophenyl]piperidin-4-yl]carbonylamino]-propanoic acid]
0.042 | 59 | O=C(N[C@@H](CNC(=O)C1CCN(c2cccc(NC3=NCC(F)CN3)c2)CC1)C(=O)O)OCc1ccccc1 (stereo partly drawn) [Ex. 13, (2S)-2-benzyloxycarbonylamino-3-[[1-[3-(5-fluoro-1,4,5,6-tetrahydropyrimidin-2-yl)aminophenyl]piperidin-4-yl]carbonylamino]-propanoic acid]
5.1 | 4600 | O=C(NCc1ccccc1)Nc1cccc(N2CCC(C(=O)NC[C@H](NC(=O)OCc3ccccc3)C(=O)O)CC2)c1 [Ex. 30, (2S)-3-{[1-[3-(benzylaminocarbonyl)aminophenyl]-piperidin-4-yl}carbonylamino]-2-(benzyloxycarbonylamino)propanoic acid]
0.11 | 800 | CC(C)OC(=O)N[C@@H](CNC(=O)C1CCN(c2cccc(NC3=NCCCN3)c2)CC1)C(=O)O [Ex. 44, (2S)-2-isopropoxycarbonylamino-3-[[1-[3-(1,4,5,6-tetrahydropyrimidin-2-yl)aminophenyl]piperidin-4-yl]carbonylamino]-propanoic acid]
